Reference: patent US20110177179A1, “PREPARATION OF BOTANICAL EXTRACTS CONTAINING ABSORBABLE COMPONENTS USING PHARMACEUTICAL PLATFORM TECHNOLOGY” (SINOVEDA CANADA, INC., priority 2010, published 2011)
Like-named read-outs stand apart in the source and are kept apart here.

Experiments:
colonic bacteria = assay: Metabolism by colonic (intestinal) bacteria, anaerobic incubation with fecal sample; assay type: in vitro ADME, rat; conditions: for metabolism by colonic bacteria (change in level): Red clover methanolic extract, anaerobic, 37° C., up to 24 hours
Procedure: The effect of colonic bacteria on the stability of a methanolic extract of Red clover was evaluated. The procedures reported by Schneider et al. (Schneider, Simmering et al. 2000) was used to prepare a fecal sample collected from a rat. The extract was incubated anaerobically at 37° C. for a period of 24 hours.

[1] = Hollman, van Trijp et al. 1997; cited from earlier work
MDCK cells = assay: Permeability of extract components through MDCK cell monolayer; assay type: in vitro ADME; conditions: for permeability versus molecular weight trend: Rhodiola 80% methanol extract
Procedure: Both CaCo-2 and MDCK cells were purchased form American Type Culture Collection (ATCC) and cultured with Dulbecco Modified Eagle's Media (DMEM) supplemented with 10% fetal bovine serum, 1% non-essential amino acids, and 10 mM HEPES. All tissue culture media and supplements were purchased from Sigma-Aldrich. Following Yee's method (Yee 1997), CaCo-2 cells were seeded into transwell culture dishes and cultured for 21 days. Lin et al's. (2003) method was used to seed and culture MDCK cells; the culturing period was three days.
(§1) Two natural products: Rhodiola rosea and Red yeast rice were individually extracted using the three solvents described in Example 1. Each extract was dissolved in Hanks' balanced salt buffer supplemented with 20 mM HEPES at 1 mg/ml. Permeability studies were carried out using MDCK cells and samples were taken from the apical side at 0 minute and 60 minutes and from the basal side at 60 minutes after incubation. Samples were diluted with a 1:1 mixture of methanol and acetonitrile prior to analysis using a LC/MS system. Permeability coefficient number was calculated as follows: Peff (cm/sec)=(Vr/(A*Cs))*(Cf/t), where Vr is the receiver side volume (basal; ml), A is the area of monolayer (cm^2), Cs is the starting concentration at the donor side (μM), Cf is the concentration at the receiver side at time t (μM), and t is the incubation time (seconds).
as §1, with “The extracts of” for “Two natural products: Rhodiola rosea and”, “clover” for “yeast rice”, “individually” for “individually extracted using the three solvents described in Example 1. Each extract was”, “(cm/sec)=(Vr/(A*C,))*(Cf/t),” for “(cm/sec)=(Vr/(A*Cs))*(Cf/t),”

[2] = major component of Chuanxiong; Yan, Ko et al. 2008; cited from earlier work
[3] = after 6 hours of incubation with colonic bacteria
[4] = Rhodiola rosea extracts, 1 mg/ml, 60 minutes, p<0.05

Oc1ccc([C@H]2COc3cc(O)ccc3C2)cc1 [Equol]
metabolism by colonic bacteria (change in level) (colonic bacteria): appeared shortly after incubation
species left in the incubate (colonic bacteria; [3]): major species left

C[C@@H]1O[C@@H](OC[C@H]2O[C@@H](Oc3c(-c4ccc(O)c(O)c4)oc4cc(O)cc(O)c4c3=O)[C@H](O)[C@@H](O)[C@@H]2O)[C@H](O)[C@H](O)[C@H]1O [Rutin]
detection in the blood stream [1]: not detected

COc1ccc(-c2coc3cc(O)cc(O)c3c2=O)cc1 [biochanin A]
species left in the incubate (colonic bacteria): major species left

COc1ccc(-c2coc3cc(O)ccc3c2=O)cc1 [formononetin]
metabolism by colonic bacteria (change in level) (colonic bacteria): increase
species left in the incubate (colonic bacteria; [3]): major species left

CC[C@H](C)C(=O)O[C@H]1C[C@@H](C)C=C2C=C[C@H](C)[C@H](CC[C@@H]3C[C@@H](O)CC(=O)O3)[C@H]21 [monacolin K]
permeability, comparison of water, 80% methanol and hexane extracts (MDCK cells; Red yeast rice extracts, 1 mg/ml, 60 minutes): highest in the hexane extract

OC[C@@H]1O[C@@H](OC[C@H]2O[C@@H](OC/C=C/c3ccccc3)[C@H](O)[C@@H](O)[C@@H]2O)[C@H](O)[C@H]1O [rosarin]
permeability versus molecular weight trend (MDCK cells; 1 mg/ml, 60 minutes): deviated significantly from the trend
permeability, 80% methanol extract as opposed to water extract (MDCK cells; [4]): significantly different

O[C@@H]1[C@@H](O)[C@H](OC/C=C/c2ccccc2)O[C@H](CO[C@@H]2OC[C@H](O)[C@H](O)[C@H]2O)[C@H]1O [rosavin]
permeability versus molecular weight trend (MDCK cells; 1 mg/ml, 60 minutes): deviated significantly from the trend
permeability, 80% methanol extract as opposed to water extract (MDCK cells; [4]): significantly different

CCC/C=C1\OC(=O)C2=C1CCC=C2 [z-ligustilide]
bioavailability [2]: less than 3%

hydroxyrosavin
permeability, 80% methanol extract as opposed to water extract (MDCK cells; MDCK): significantly different
